Assay results from patent publication US7202265B2, “Indolinone combinatorial libraries and related products and methods for the treatment of disease” (Sugen, Inc., priority 1997, dated 2007).

Legend:
EGFR = biological target: T1, EGFR (Homo sapiens, UniProt P00533); experiment: EGFR ELISA assay (in vitro kinase activity, A431 cell lysate); type: biochemical; design: concentration or dose not given beside the values
T1 construct: Add 7 ug A431 cell lysate per well (EGFR source); endogenous in cells; host or cells: A431 cells (lysate)
T1 sequence (P00533 25-1210): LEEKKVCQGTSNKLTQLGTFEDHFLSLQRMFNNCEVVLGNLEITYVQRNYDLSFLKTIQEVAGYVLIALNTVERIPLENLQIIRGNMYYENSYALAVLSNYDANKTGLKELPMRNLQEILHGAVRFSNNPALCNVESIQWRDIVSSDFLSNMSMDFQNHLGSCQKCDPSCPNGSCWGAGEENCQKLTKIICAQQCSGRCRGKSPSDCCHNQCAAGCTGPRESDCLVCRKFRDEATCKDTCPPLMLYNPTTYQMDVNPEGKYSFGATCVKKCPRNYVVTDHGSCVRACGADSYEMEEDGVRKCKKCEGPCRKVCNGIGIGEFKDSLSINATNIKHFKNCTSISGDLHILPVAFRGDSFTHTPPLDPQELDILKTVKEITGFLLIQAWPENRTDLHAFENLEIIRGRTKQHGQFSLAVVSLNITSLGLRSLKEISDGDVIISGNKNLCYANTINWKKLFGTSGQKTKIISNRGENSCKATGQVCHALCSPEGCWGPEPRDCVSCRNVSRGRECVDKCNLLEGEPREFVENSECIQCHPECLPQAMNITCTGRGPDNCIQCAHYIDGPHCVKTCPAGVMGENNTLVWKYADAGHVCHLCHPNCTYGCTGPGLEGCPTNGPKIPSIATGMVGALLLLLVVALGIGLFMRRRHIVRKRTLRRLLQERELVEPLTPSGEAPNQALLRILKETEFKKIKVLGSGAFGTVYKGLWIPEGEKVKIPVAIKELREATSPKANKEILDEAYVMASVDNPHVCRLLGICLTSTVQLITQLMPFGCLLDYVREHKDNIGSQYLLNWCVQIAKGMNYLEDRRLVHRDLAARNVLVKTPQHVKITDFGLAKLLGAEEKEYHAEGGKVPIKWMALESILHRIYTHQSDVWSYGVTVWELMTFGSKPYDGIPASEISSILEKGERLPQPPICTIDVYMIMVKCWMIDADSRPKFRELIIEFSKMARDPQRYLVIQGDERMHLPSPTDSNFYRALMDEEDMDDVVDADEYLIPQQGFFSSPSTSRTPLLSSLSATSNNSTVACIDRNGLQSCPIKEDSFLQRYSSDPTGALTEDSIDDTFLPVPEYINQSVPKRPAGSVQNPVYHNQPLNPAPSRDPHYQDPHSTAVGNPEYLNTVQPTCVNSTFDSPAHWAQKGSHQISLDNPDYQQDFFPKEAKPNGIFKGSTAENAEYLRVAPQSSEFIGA
Description: To provide a consistent method for measuring the in vitro kinase activity of the EGFR in an Enzyme-linked immunosorbent assay (Elisa).
Scope. The following protocol describes the procedures used to analyze protein tyrosine kinase activity on the EGFR in an Elisa. The procedure also describes the protocol for the initial screening of drugs for inhibition or activation of protein tyrosine kinase activity.
1. Coat Corning 96-well elisa plates with 0.5 ug per well 05-101 antibody. • Bring final volume to 100 ul per well with PBS. • Coat plates overnight at […].
2. Remove unbound 05-101 from wells by inverting plate to remove liquid. • Wash 1× with distilled H2O by filling wells • Pat the plate on a paper towel to remove excess liquid.
3. Block plates with 5% milk in PBS. • 150 ul per well. • Incubate plate 30 minutes while shaking on a microtiter plate shaker.
4. Wash plate 3× with dionized water, then once with TBST
5. Add 7 ug A431 cell lysate per well (EGFR source). • Add PBS to final volume of 100 ul per well • Incubate 30 minutes while shaking.
6. Wash as described in step 4.
8. […] It is best to add the ATP/MnCl2 with an 12 channel pipettor 1 row at a time leaving 20 seconds between each row so that the reaction may be stopped with EDTA exactly 5 minutes later (this depends on the number of plates being phosphorylated in one batch). Shake between each addition.
9. After 5 minutes, to stop reaction, add 16.5 ul of 200 mM EDTA pH 8.0 for 20 mM final in well, shaking continuously between each addition. This is done using the same timing method as above. After last row has received EDTA, shake plate an additional minute.
10. Wash 4× with deionized water, twice with TBST.
11. Add rabbit polyclonal anti-phosphotyrosine serum. • Dilute 1:3000 in TBST. • Add 100 ul per well. • Incubate 30–45 minutes while shaking.
12. Wash as described above in step 4.
13. Add BioSource anti-rabbit peroxidase conjugate antibody. • Dilute 1:2000 in TBST. • Add 100 ul per well. • Incubate 30 minutes while shaking.
14. Wash as described in step 4.
15. Add 100 ul of ABTS/H2O2 solution to well. • Incubate 5 to 10 minutes while shaking. • Remove bubbles
16. If necessary stop reaction with the addition of 100 ul of 0.2M HCl per well
17. Read assay on Dynatech MR7000 elisa reader. • Test Filter: 410 nM • Reference Filter: 630 nM

[1] = biological target: platelet derived growth factor protein kinase (PDGFR) (Homo sapiens, UniProt P09619); experiment: PDGF-R ELISA; type: cell-based; design: concentration or dose not given beside the values
platelet derived growth factor protein kinase (PDGFR), sequence (P09619 33-1106): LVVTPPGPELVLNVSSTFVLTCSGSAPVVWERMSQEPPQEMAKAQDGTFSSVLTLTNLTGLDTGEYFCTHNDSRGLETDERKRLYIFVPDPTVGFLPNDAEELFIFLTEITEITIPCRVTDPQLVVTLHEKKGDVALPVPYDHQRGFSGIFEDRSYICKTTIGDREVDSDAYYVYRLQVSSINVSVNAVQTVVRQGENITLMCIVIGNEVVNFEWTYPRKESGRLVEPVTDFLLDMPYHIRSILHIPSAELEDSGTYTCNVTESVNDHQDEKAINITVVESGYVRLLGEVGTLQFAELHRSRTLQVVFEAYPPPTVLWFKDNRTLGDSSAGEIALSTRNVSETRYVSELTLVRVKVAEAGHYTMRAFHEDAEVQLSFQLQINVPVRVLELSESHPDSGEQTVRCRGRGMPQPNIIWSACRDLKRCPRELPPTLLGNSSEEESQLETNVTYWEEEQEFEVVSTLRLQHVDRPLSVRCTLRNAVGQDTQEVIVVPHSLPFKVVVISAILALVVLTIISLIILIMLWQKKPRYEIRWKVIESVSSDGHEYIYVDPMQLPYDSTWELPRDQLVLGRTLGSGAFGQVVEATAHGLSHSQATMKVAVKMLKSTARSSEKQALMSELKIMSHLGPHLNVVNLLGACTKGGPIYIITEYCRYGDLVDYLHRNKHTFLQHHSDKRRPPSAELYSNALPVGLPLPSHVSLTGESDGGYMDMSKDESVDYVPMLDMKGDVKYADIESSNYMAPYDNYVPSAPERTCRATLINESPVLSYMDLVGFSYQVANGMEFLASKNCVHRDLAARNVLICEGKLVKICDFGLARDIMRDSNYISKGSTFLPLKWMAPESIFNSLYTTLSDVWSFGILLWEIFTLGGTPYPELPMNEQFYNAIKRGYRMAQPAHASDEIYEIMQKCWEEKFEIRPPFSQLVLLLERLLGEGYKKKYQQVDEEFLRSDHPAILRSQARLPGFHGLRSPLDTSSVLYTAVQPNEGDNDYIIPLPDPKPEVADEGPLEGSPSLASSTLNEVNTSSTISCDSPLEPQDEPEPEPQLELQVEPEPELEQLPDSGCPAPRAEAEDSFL
From the text: A PDGF-R ELISA is described in International Patent Publication No. WO 96/40116, published Dec. 19, 1996 by Tang et al.

human MET = experiment: MET biochemical kinase assay; design: concentration or dose not given beside the values
Summary of the method: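 MET captured from cell lysates onto plates coated with goat anti-rabbit Fc plus rabbit polyclonal anti-MET cytoplasmic-domain antibody; after washing, compounds added with kinase buffer containing ATP and divalent metal ions. Receptor tyrosine phosphorylation detected by HRP-conjugated anti-phosphotyrosine antibody, TMB colorimetric read-out.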

FLK-1 receptor = biological target: T2, FLK-1 receptor (Mus musculus, UniProt P35918); experiment: FLK-1 ELISA (catalytic activity of the FLK-1 receptor in FLK-1/NIH3T3 cells); type: cell-based; design: Flk Kinase % Inhibition: concentration or dose not given beside the values
T2 construct: expressed in transfected cells; host or cells: NIH3T3 C7#3 (FLK-1/NIH3T3)
T2 sequence (P35918 20-1345): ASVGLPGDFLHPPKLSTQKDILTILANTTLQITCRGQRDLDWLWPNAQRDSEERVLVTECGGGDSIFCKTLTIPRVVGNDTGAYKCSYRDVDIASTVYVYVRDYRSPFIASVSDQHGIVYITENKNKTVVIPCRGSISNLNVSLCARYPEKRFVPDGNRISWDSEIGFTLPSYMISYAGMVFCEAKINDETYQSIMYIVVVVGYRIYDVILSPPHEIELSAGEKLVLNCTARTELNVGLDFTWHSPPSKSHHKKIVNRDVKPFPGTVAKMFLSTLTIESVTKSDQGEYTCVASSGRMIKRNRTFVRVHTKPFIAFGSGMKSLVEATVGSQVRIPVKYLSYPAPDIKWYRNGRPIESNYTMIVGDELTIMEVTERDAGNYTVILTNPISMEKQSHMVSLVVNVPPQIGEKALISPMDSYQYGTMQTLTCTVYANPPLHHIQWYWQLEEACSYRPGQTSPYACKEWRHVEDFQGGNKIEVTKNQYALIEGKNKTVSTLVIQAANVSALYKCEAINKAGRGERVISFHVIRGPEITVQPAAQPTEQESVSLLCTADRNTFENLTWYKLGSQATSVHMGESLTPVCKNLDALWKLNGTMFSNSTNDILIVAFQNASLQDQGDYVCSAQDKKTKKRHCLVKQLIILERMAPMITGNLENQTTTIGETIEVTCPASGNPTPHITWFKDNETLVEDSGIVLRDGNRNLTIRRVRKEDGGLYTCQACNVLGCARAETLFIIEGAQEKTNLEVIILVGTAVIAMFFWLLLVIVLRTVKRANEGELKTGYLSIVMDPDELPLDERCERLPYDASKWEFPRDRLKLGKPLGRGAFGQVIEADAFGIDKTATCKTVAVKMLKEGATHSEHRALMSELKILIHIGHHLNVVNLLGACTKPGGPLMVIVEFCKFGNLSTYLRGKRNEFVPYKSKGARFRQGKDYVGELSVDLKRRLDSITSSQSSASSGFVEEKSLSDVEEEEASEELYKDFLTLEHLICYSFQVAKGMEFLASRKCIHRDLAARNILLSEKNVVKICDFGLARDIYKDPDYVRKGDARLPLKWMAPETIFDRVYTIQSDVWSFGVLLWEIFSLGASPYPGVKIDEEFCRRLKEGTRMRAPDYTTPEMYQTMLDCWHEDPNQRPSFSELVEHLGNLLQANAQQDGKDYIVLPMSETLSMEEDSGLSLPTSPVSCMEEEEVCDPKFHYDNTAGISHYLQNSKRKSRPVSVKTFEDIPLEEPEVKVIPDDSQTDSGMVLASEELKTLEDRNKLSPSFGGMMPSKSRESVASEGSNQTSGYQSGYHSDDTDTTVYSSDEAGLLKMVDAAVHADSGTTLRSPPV

Structure (SMILES) | Biochem EGFR % Inhibition (EGFR) | PDGF Kinase % Inhibition [1] | Met Kinase % Inhibition (human MET) | Flk Kinase % Inhibition (FLK-1 receptor)
CN(C)c1ccc(C=C2C(=O)Nc3ccc(I)cc32)c2ccccc12 [10724/B02] | 34.9% | −21.5% | 48.8% | −6.2%
O=C1Nc2ccc(I)cc2C1=Cc1cc2c3c(c1O)CCCN3CCC2 [10724/B05] | 21.2% | 12.6% | 45.6% | −2.2%
Cn1c(C=C2C(=O)Nc3ccc(I)cc32)nc2ccccc21 [10721/B02] | 58.6% | – | 82.6% | 19.5%
O=C1Nc2ccc(I)cc2C1=Cc1ccc([N+](=O)[O-])c(O)c1 [10724/B04] | 50.2% | 42.5% | 81.2% | −20.5%
Cc1ccc(C=C2C(=O)Nc3ccc(I)cc32)o1 [10725/B04] | 76.9% | 9.3% | 90.4% | 1.1%
CCOC(=O)CCc1c(C(=O)OCC)[nH]c(C=C2C(=O)Nc3ccc(I)cc32)c1CC(=O)OCC [10718/B05] | 56.3% | – | 76.0% | 11.5%
CNS(=O)(=O)c1ccc2c(c1)C(=Cc1cccc(C#N)c1)C(=O)N2 [10727/D08] | – | 5.0% | 8.5% | –
Cc1cc(C=C2C(=O)Nc3ccc(I)cc32)sc1C [10721/B04] | 79.3% | – | 93.1% | 13.8%
CNS(=O)(=O)c1ccc2c(c1)C(=Cc1c(OC)ccc3ccccc13)C(=O)N2 [10729/D02] | 5.7% | – | – | –
Cc1ccc(C=C2C(=O)Nc3c(Br)cc(Br)cc32)o1 [10725/A04] | 26.2% | −3.2% | 55.3% | −8.6%
CNS(=O)(=O)c1ccc2c(c1)C(=Cc1ccc(F)cc1C(F)(F)F)C(=O)N2 [10719/D11] | −11.1% | – | 12.8% | −8.7%
O=C1Nc2ccc(I)cc2C1=Cc1ccc(Cl)s1 [10721/B07] | 47.6% | – | 47.1% | 11.2%
O=C1Nc2ccc(I)cc2C1=Cc1cc([N+](=O)[O-])cc(CCl)c1O [10721/B06] | 71.5% | – | 92.4% | 3.4%
O=C1Nc2ccc(I)cc2C1=Cc1csc([N+](=O)[O-])c1 [10722/B09] | 7.8% | 14.6% | 59.7% | 8.7%
O=C1Nc2ccc(I)cc2C1=Cc1ccc2c(c1)Cc1ccccc1-2 [10728/B06] | 38.1% | 7.6% | 56.0% | 4.7%
Cn1cc(Cl)c(C=C2C(=O)Nc3ccc(I)cc32)n1 [10721/B03] | 38.9% | – | 70.8% | 19.9%
Cc1cc(C=C2C(=O)Nc3ccc(I)cc32)cc(C)c1O [10722/B07] | 6.2% | 20.9% | 48.2% | 6.6%
